Earlier results in US20110303570A1, “PACKAGE OF SOLID PHARMACEUTICAL PREPARATION” (Astellas Pharma Inc., priority 2009, published 2011).

Conditions: administered either orally or directly into the colon of a mammal

Bioavailability as gabapentin: high
SMILES: CC(OC(=O)NCC1(CC(=O)O)CCCCC1)OC(=O)C(C)C (stereo not drawn) [1-{[(α-isobutanoyloxyethoxy)carbonyl]aminomethyl}-1-cyclohexane acetic acid]
